# Measured values reported in PMC3024946, “Hydroxyproline-containing collagen analogs trigger the release and activation of collagen-sequestered proMMP-2 by competition with prodomain-derived peptide P33-42” (Fibrogenesis & Tissue Repair, 2011).
# Tests used:
# [1] = test system: gelatinase activity in rat cirrhotic liver; test: In situ zymography of cirrhotic liver, negative controls; type: biochemical; details: 10 mM ethylenediaminetetraacetic acid or 1 mM phenanthroline; DQ-gelatine
# Protocol: As described earlier, in situ zymography was performed with cryostat sections (6 μm) of rat cirrhotic liver. In brief, sections were dried, overlayed with 100 μg/ml DQ-gelatine (λex/em, 495/515 nm; Molecular Probes, Eugene, OR, USA) and 0.5% (wt/vol) low-melt agarose in MMP activity buffer. […] Samples were inserted into coverslips and incubated at 40°C for 1 h before being transferred to room temperature for an additional 2 to 16 h. Hoechst 33342 (Invitrogen, Carlsbad, California, USA) nuclear dye was used for counterstaining. Images were obtained by fluorescence microscopy using a Nikon E800 photodocumentation microscope (Nikon Imaging, Düsseldorf, Germany).
# ActMMP-2 = test: Solid-phase binding of [125I]-actMMP-2 to immobilized collagens/peptides (microwells); design: species or system human; details: for Binding of [125I]-MMPs: ActMMP-2, 2 ng/well, coated wells, 4°C, 2 h, residual radioactivity, mean ± SD, at least five experiments in triplicate
# Protocol: (§1) Human recombinant proMMPs and in vitro activated MMPs were obtained from Invitek and were labeled with the [^125I]-Bolton-Hunter reagent according to the manufacturer's instructions (PerkinElmer, Rodgau, Germany) before the buffer was exchanged for phosphate-buffered saline (PBS) with 0.05% (vol/vol) Tween 20 by gel filtration as described previously. Specific radioactivity for [^125I]-MMPs was 3-9 × 10^4 cpm/ng. Precipitation with 10% (wt/vol) trichloroacetic acid and 200 μg of BSA recovered 96% to 100% of protein-bound radioactivity. Aliquots of labeled MMPs were frozen and stored at -80°C. The activity and integrity were checked by substrate gel zymography using SDS-PAGE and autoradiography with overnight exposure to Biomax MS film (Kodak, Stuttgart, Germany) (Figure 2A).
# (§2) Native human CI, CIII and CVI were purified from skin tissue and placenta. The CI single chains α1(I) and α2(I) were obtained and modified as described previously. To prepare defined fragments, 2 mg of α1(I) were dissolved in 1 ml of 70% (vol/vol) formic acid at room temperature, the tubes were flushed with nitrogen for 10 min, and then 2 mg of CB were added. After incubation for 4 h at 37°C, free CB was neutralized and the samples were lyophilized. The peptides CB3, CB6, CB7 and CB8 were separated from the reaction mixture by gel filtration followed by ion-exchange chromatography. The resulting peptides were characterized by amino acid analysis and SDS-PAGE [45, 46]. The CB peptides had the following melting temperatures: CB3, 23.9°C; CB6, 26.7°C; CB7, 28.1°C; and CB8, 28.0°C [31].
# (§3) The following collagen analogs and control peptides were synthesized as described previously: (GPO)10, H-Gly-Cys-Hyp-(Gly-Pro-Hyp)10-Gly-Cys-Hyp-Gly-NH2; (GPP)10, H-Gly-Cys-Pro-(Gly-Pro-Pro)10-Gly-Cys-Pro-Gly-NH2; and GAP, H-Gly-Ala-Cys-(Gly-Ala-Pro)5-Gly-Phe-Hyp-Gly-Glu-Arg-(Gly-Ala-Pro)5-NH2. Peptides (POG)10, (PPG)10 and (POG)5 were purchased from Peptide International (Louisville, KY, USA). Spontaneous triple-helix assembly was approved by polarimetry over a 10-cm path length at 1°C/min in 10 mM phosphate buffer, pH 7.4. At 5 mg/ml, midpoints of melting curves occurred at 82.3 ± 1.4°C for (GPO)10 and at 45.8 ± 0.8°C for (GPP)10. […] Graphs were calculated from the primary data using a custom fitting program written by D.A. Slatter (Department of Biochemistry, University of Cambridge, Cambridge, UK [48]) to model different possible transitions. All collagens, CI derivatives and peptides were stored in stock solutions of 2 mg/ml in 150 mM acetic acid at -20°C.
# (§4) ProMMP-2 and proMMP-9 or actMMP-2 and actMMP-9 were bound to nitrocellulose and polystyrene-immobilized native collagens, CI chains, CB peptides or structural analogs. Serial dilutions of collagens or CI derivatives in 150 mM acetic acid were dotted at 3 × 3 μl to a nitrocellulose membrane with high protein-binding capacity (GE Healthcare, Munich, Germany). Air-dried membranes were blocked with PBS and 0.3% (vol/vol) Tween 20 overnight at 4°C, washed three times, and incubated with 1 ng/ml [^125I]-pro- and actMMP-2 and pro- and actMMP-9 in PBS and 0.3% (vol/vol) Tween 20 for 2 h at room temperature. Membranes were washed again and air-dried, and bound MMP was monitored by autoradiography. In parallel, polystyrene microtiter plates (Dynex, Chantilly, VA, USA) were coated with collagen proteins and peptides. Here 2 μg/well or 200 ng/well proteins and peptides or BSA as control were immobilized in 100 μl of 50 mM ammonium bicarbonate buffer, pH 9.6, by overnight incubation at 4°C. Immobilization efficacies were 20% to 45% of total proteins. Wells were washed three times with PBS, and nonspecific binding sites were blocked with PBS and 0.05% (vol/vol) Tween 20 for 1 h at room temperature. All incubation steps were performed with 2 ng of [^125I]-MMPs at 4°C for 2 h. […]
# ActMMP-9 = test: Solid-phase binding of [125I]-actMMP-9 to immobilized collagens/peptides (microwells); design: species or system human; details: ActMMP-9, 2 ng/well; coated wells; 4°C, 2 h; residual radioactivity; mean ± SD, at least five experiments in triplicate
# Protocol: as §1, §2, §3, §4
# ProMMP-2 = test: Solid-phase binding of [125I]-proMMP-2 to immobilized collagens/peptides (microwells); design: species or system human; details: for Binding of [125I]-MMPs: ProMMP-2, 2 ng/well, coated wells, 4°C, 2 h, residual radioactivity, mean ± SD, at least five experiments in triplicate
# Protocol: as §1, §2, §3, §4
# ProMMP-9 = test: Solid-phase binding of [125I]-proMMP-9 to immobilized collagens/peptides (microwells); design: species or system human; details: ProMMP-9, 2 ng/well; coated wells; 4°C, 2 h; residual radioactivity; mean ± SD, at least five experiments in triplicate
# Protocol: as §1, §2, §3, §4
# MMPs / CI = test: SPR, effect of control peptide on interaction of the MMPs with CI; type: binding, human; details: linear control peptide, not shown
# Protocol: Sensor chip preparations and SPR measurements were performed using a BiacoreX device and the Bia-evaluation software (version 3.2; Biacore, Uppsala, Sweden). The pepsin-resistant triple-helical part of human fibrillar CI (100 μg/ml) in 10 mM acetate coupling buffer, pH 4.8, was immobilized to a dextran matrix-sensor chip at a flow rate of 5 μl/min, resulting in 5,500 resonance units from CI covalently linked via its primary amino groups. The control flow cell was prepared using the coupling buffer without CI. Surfaces were activated and blocked as described previously. […] The effects of (GPO)10, GAP, (POG)5, (GPP)10 and P33-42 on MMP-2 and MMP-9 binding to CI and their enzymatic activity were determined by adding the binding competitors to the (pro- and act)MMP-2 and MMP-9 solution in 10- to 150-fold molar excesses. Effects independent of MMP-2 and MMP-9 activity were monitored in the presence of Ro 28-2653 (1 μM) during SPR analysis. […] Kinetic parameters were analyzed using the 1:1 binding model with drifting baseline and subtraction of the control flow cell binding from sensorgrams obtained with immobilized CI. Binding constants (Kd) were calculated from the association (ka) and dissociation rates (kd) obtained from individual binding curves at different concentrations. […]
# proMMP-2 / CI = target: T1, proMMP-2 / CI (Homo sapiens, UniProt P08253); test: SPR, competition of proMMP-2 binding to CI, MMP activity buffer with Ro 28-2653; details: SPR; MMP activity buffer with Ro 28-2653
# T1 construct: prodomain-containing proMMP-2 or proMMP-9; purchased Invitek
# T1 sequence (P08253 30-660 limits assumed): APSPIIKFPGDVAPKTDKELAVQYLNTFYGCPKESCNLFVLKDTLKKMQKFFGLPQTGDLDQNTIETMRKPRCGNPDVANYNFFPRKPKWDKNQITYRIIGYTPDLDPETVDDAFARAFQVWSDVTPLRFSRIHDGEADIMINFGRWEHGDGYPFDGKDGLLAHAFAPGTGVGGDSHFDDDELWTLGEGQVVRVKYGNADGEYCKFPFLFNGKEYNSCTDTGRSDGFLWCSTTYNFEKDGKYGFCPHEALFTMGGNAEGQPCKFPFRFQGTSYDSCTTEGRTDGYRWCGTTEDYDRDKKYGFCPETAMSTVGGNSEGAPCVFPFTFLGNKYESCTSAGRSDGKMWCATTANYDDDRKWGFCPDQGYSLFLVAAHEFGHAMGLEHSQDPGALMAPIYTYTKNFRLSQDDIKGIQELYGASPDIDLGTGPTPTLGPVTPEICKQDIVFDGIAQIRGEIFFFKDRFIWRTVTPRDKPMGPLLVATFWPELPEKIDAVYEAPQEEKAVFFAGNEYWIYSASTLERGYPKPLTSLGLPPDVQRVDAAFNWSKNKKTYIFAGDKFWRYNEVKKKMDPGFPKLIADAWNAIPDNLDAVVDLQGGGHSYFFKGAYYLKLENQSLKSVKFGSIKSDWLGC
# Protocol: Sensor chip preparations and SPR measurements were performed using a BiacoreX device and the Bia-evaluation software (version 3.2; Biacore, Uppsala, Sweden). The pepsin-resistant triple-helical part of human fibrillar CI (100 μg/ml) in 10 mM acetate coupling buffer, pH 4.8, was immobilized to a dextran matrix-sensor chip at a flow rate of 5 μl/min, resulting in 5,500 resonance units from CI covalently linked via its primary amino groups. The control flow cell was prepared using the coupling buffer without CI. Surfaces were activated and blocked as described previously. Immediately after thawing, pro- and actMMP-2 and pro- and actMMP-9 were diluted to 100 to 250 nM in MMP activity buffer or in PBS and 0.05% (vol/vol) Tween 20. For SPR measurements, flow rates were 10 μl/min at 25°C, and equilibrium was typically reached after 30 to 60 s. The effects of (GPO)10, GAP, (POG)5, (GPP)10 and P33-42 on MMP-2 and MMP-9 binding to CI and their enzymatic activity were determined by adding the binding competitors to the (pro- and act)MMP-2 and MMP-9 solution in 10- to 150-fold molar excesses. Effects independent of MMP-2 and MMP-9 activity were monitored in the presence of Ro 28-2653 (1 μM) during SPR analysis. The gelatinase inhibitor Ro 28-2653 was a generous gift from H.-W. Krell (Roche, Grenzach-Wyhlen, Germany). Sensor surfaces were regenerated with 10 mM glycine, pH 2.3, for 1 min between runs, and sensor chips were used up to 25 times. Kinetic parameters were analyzed using the 1:1 binding model with drifting baseline and subtraction of the control flow cell binding from sensorgrams obtained with immobilized CI. Binding constants (Kd) were calculated from the association (ka) and dissociation rates (kd) obtained from individual binding curves at different concentrations. Individual drifts of the resonance signal were fitted locally, and χ^2 values of 0.2% to 1.0% of the maximum resonance value were considered good fits.
# [2] = Triple-helix melting temperature; type: physicochemical; details: at 5°C; polarimetry
# Protocol: as §2, §3
Molecule,gelatinase activity [1],Binding of [125I]-MMPs (ActMMP-2),Binding of [125I]-MMPs (ActMMP-9),Binding of [125I]-MMPs (ProMMP-2),Binding of [125I]-MMPs (ProMMP-9),"interaction with control peptides (ProMMP-2; pro- and act-forms of MMP-2 and MMP-9, in words)",effect on interaction of the MMPs with CI (MMPs / CI),competition with proMMP-2 binding to CI (proMMP-2 / CI),helicity [2],"maximum binding (ActMMP-2; actMMP-2, text) [%]"
O=C(O)CN(CCN(CC(=O)O)CC(=O)O)CC(=O)O [ethylenediaminetetraacetic acid],no generation of bright green fluorescence was observed,,,,,,,,,
c1cnc2c(c1)ccc1cccnc12 [phenanthroline],no generation of bright green fluorescence was observed,,,,,,,,,
CVI: native human collagen type VI,,4.8 ± 0.6 % of maximum control,2.4 ± 0.1 % of maximum control,14.1 ± 1.8 % of maximum control,12.3 ± 0.8 % of maximum control,,,,,
"H-Gly-Ala-Cys-(Gly-Ala-Pro)5-Gly-Phe-Hyp-Gly-Glu-Arg-(Gly-Ala-Pro)5-NH2 [GAP, linear Gly-Ala-Pro (GAP) control peptide]",,1.5 ± 0.7 % of maximum control,0.7 ± 0.2 % of maximum control,1.7 ± 1.0 % of maximum control,1.3 ± 0.2 % of maximum control,only marginal interactions,no effect,less efficient,nonhelical even at 5 °C,
α1(I): α1 chain of collagen type I,,19.0 ± 3.0 % of maximum control,4.7 ± 0.3 % of maximum control,36.0 ± 4.0 % of maximum control,37.6 ± 0.9 % of maximum control,,,,,19
α2(I): CI single chain α2(I),,10.7 ± 1.8 % of maximum control,2.6 ± 0.2 % of maximum control,30.2 ± 2.3 % of maximum control,21.8 ± 1.1 % of maximum control,,,,,
